{"source": "patent US5189159A", "about": "“8a-AZA-8a-homoerythromycin cyclic iminoethers” (Merck & Co., Inc., priority 1992, dated 1993)", "key": {"[1]": {"experiment": "isomerization / stability of 9,12-epoxy isomers", "format": "physicochemical", "description": "As previously noted, Beckmann rearrangement of oxime (III) under anhydrous conditions leads to a product mixture comprised of the 6,9- and 9,12-bridged iminoethers (VI) and (VII). The 9,12-bridged product, which is formed by internal trapping of the intermediate nitrilium species by the hydroxyl group at C-12, is initially isolated as a mixture of major and minor forms that are isomeric about the imino double bond. The initial mixture of isomers equilibrates at room temperature, both in solution or on storing as a crude foam, to approximately a 1:1 mixture of isomers. The first-formed, major isomer can be isolated from the mixture by crystallization from nitromethane solution.\nA solution of the mixture of 9,12-epoxy isomers in nitromethane (2 mL) deposited a large, crystalline mass on standing at room temperature for several days. The mixture was diluted with nitromethane (10 mL) and filtered to remove the solid portion, which was washed with nitromethane (2 mL) and dried under high vacuum. The white solid thus obtained (0.9 g) was shown by ^1 H NMR spectroscopy to be the major 9,12-epoxy isomer which is initially formed in the Beckmann rearrangement reaction."}, "[2]": {"tested_on": "Enterococcus faecalis MB 5407", "experiment": "MIC, liquid turbidimetric microtiter method", "format": "cell-based", "details": "MB5407, broth media", "description": "(§1) The compounds of formula (II) show antibacterial activity against a range of aerobic Gram positive and negative bacteria, as shown in the following Table. The assay employs a liquid turbidimetric microtiter method for determination of the minimum inhibitory concentration (MIC) in broth media. […] The MIC is generally not an absolute value but rather a concentration range that falls within a two-fold dilution limit. Generally twelve two-fold dilutions of the test compound are employed with the initial concentration set at 128 mcg/ml."}, "[3]": {"tested_on": "Enterococcus faecium MB 5416", "experiment": "MIC, liquid turbidimetric microtiter method", "format": "cell-based", "details": "MB5416, broth media", "description": "as §1"}, "[4]": {"tested_on": "Escherichia coli MB 2884", "experiment": "MIC, liquid turbidimetric microtiter method", "format": "cell-based", "details": "MB2884, broth media", "description": "as §1"}, "[5]": {"tested_on": "Escherichia coli MB 4926", "experiment": "MIC, liquid turbidimetric microtiter method", "format": "cell-based", "details": "MB4926, broth media", "description": "as §1"}, "[6]": {"tested_on": "Klebsiella pneumoniae MB 4005", "experiment": "MIC, liquid turbidimetric microtiter method", "format": "cell-based", "details": "MB4005, broth media", "description": "as §1"}, "[7]": {"tested_on": "Pseudomonas stutzeri MB 1231", "experiment": "MIC, liquid turbidimetric microtiter method", "format": "cell-based", "details": "Stutzerimonas stutzeri, MB1231, broth media", "description": "as §1"}, "[8]": {"tested_on": "Staphylococcus aureus MB 2865", "experiment": "MIC, liquid turbidimetric microtiter method", "format": "cell-based", "details": "MB2865, broth media", "description": "as §1"}, "[9]": {"tested_on": "Staphylococcus epidermidis MB 5414", "experiment": "MIC, liquid turbidimetric microtiter method", "format": "cell-based", "details": "MB5414, broth media", "description": "as §1"}, "[10]": {"tested_on": "Staphylococcus haemolyticus MB 5412", "experiment": "MIC, liquid turbidimetric microtiter method", "format": "cell-based", "details": "MB5412, broth media", "description": "as §1"}, "[11]": {"tested_on": "Steptococcus pneumoniae CL 2883", "experiment": "MIC, liquid turbidimetric microtiter method", "format": "cell-based", "details": "broth media", "description": "as §1"}, "[12]": {"tested_on": "Streptococcus agalactiae CL 1343", "experiment": "MIC, liquid turbidimetric microtiter method", "format": "cell-based", "details": "CL1343, broth media", "description": "as §1"}, "[13]": {"tested_on": "Streptococcus pyogenes MB 2874", "experiment": "MIC, liquid turbidimetric microtiter method", "format": "cell-based", "details": "MB2874, broth media", "description": "as §1"}, "[14]": {"tested_on": "Streptococcus pyogenes MB 5406", "experiment": "MIC, liquid turbidimetric microtiter method", "format": "cell-based", "details": "MB5406, broth media", "description": "as §1"}, "[15]": {"tested_on": "Streptococcus viridans CL 2943", "experiment": "MIC, liquid turbidimetric microtiter method", "format": "cell-based", "details": "CL2943, broth media", "description": "as §1"}, "[16]": {"tested_on": "Yersinia enterocoltica CL 1598", "experiment": "MIC, liquid turbidimetric microtiter method", "format": "cell-based", "details": "CL1598, broth media", "description": "as §1"}}, "data": [{"compound": "CC[C@H]1OC(=O)[C@H](C)[C@@H](O[C@H]2C[C@@](C)(OC)[C@@H](O)[C@H](C)O2)[C@H](C)[C@@H](O[C@@H]2O[C@H](C)C[C@H](N(C)C)[C@H]2O)[C@](C)(O)C[C@@H](C)N=C2O[C@@]1(C)[C@H](O)[C@H]2C", "note": "(single isomer, unassigned; isomer 9) [crystalline isomer, 9-deoxo-12-deoxy-9,12-epoxy-8a,9-didehydro-8a-aza-8a-homoerythromycin A]", "values": [{"measurement": "solid state stability", "setting": "[1]", "result": "stable in the solid state"}]}, {"compound": "CC[C@H]1OC(=O)[C@H](C)[C@@H](O[C@H]2C[C@@](C)(OC)[C@@H](O)[C@H](C)O2)[C@H](C)[C@@H](O[C@@H]2O[C@H](C)C[C@H](N(C)C)[C@H]2O)[C@@]2(C)C[C@@H](C)N=C(O2)[C@H](C)[C@@H](O)[C@]1(C)O", "note": "[(VI), 9-Deoxo-6-deoxy-6,9-epoxy-8a,9-didehydro-8a-aza-8a-homoerythromycin A]", "values": [{"measurement": "MIC", "setting": "[2]", "result": 32, "unit": "mg/L"}, {"measurement": "MIC", "setting": "[3]", "result": 8, "unit": "mg/L"}, {"measurement": "MIC", "setting": "[4]", "result": 128, "unit": "mg/L"}, {"measurement": "MIC", "setting": "[5]", "result": 8, "unit": "mg/L"}, {"measurement": "MIC", "setting": "[6]", "result": "> 128", "unit": "mg/L"}, {"measurement": "MIC", "setting": "[7]", "result": 0.5, "unit": "mg/L"}, {"measurement": "MIC", "setting": "[8]", "result": 16, "unit": "mg/L"}, {"measurement": "MIC", "setting": "[9]", "result": 32, "unit": "mg/L"}, {"measurement": "MIC", "setting": "[10]", "result": 8, "unit": "mg/L"}, {"measurement": "MIC", "setting": "[11]", "result": 0.5, "unit": "mg/L"}, {"measurement": "MIC", "setting": "[12]", "result": 1, "unit": "mg/L"}, {"measurement": "MIC", "setting": "[13]", "result": 1, "unit": "mg/L"}, {"measurement": "MIC", "setting": "[14]", "result": 128, "unit": "mg/L"}, {"measurement": "MIC", "setting": "[15]", "result": 16, "unit": "mg/L"}, {"measurement": "MIC", "setting": "[16]", "result": 128, "unit": "mg/L"}]}, {"compound": "CC[C@H]1OC(=O)[C@H](C)[C@@H](O[C@H]2C[C@@](C)(OC)[C@@H](O)[C@H](C)O2)[C@H](C)[C@@H](O[C@@H]2O[C@H](C)C[C@H](N(C)C)[C@H]2O)[C@](C)(O)C[C@@H](C)N=C2O[C@@]1(C)[C@H](O)[C@H]2C", "note": "[(VII), 9-Deoxo-12-deoxy-9,12-epoxy-8a,9-didehydro-8a-aza-8a-homoerythromycin A]", "values": [{"measurement": "MIC", "setting": "[2]", "result": "> 128", "unit": "mg/L"}, {"measurement": "MIC", "setting": "[3]", "result": 16, "unit": "mg/L"}, {"measurement": "MIC", "setting": "[4]", "result": 128, "unit": "mg/L"}, {"measurement": "MIC", "setting": "[5]", "result": 32, "unit": "mg/L"}, {"measurement": "MIC", "setting": "[6]", "result": "> 128", "unit": "mg/L"}, {"measurement": "MIC", "setting": "[7]", "result": 2, "unit": "mg/L"}, {"measurement": "MIC", "setting": "[8]", "result": 16, "unit": "mg/L"}, {"measurement": "MIC", "setting": "[9]", "result": 16, "unit": "mg/L"}, {"measurement": "MIC", "setting": "[10]", "result": 32, "unit": "mg/L"}, {"measurement": "MIC", "setting": "[11]", "result": 4, "unit": "mg/L"}, {"measurement": "MIC", "setting": "[12]", "result": 4, "unit": "mg/L"}, {"measurement": "MIC", "setting": "[13]", "result": 2, "unit": "mg/L"}, {"measurement": "MIC", "setting": "[14]", "result": "> 128", "unit": "mg/L"}, {"measurement": "MIC", "setting": "[15]", "result": 4, "unit": "mg/L"}]}]}
